Like-named read-outs stand apart in the source and are kept apart here.
Legend:
[1] = test system: IRF3 pathway in THP1-Dual cells; assay: THP1-Dual reporter gene activity assay (Lucia luciferase, QUANTI-Luc); assay type: cell-based, human
Text: THP1-Dual™ cells (InvivoGen catalog code: thpd-nfis) used in the test were constructed by stably integrating two inducible reporter genes into the human monocyte cell line THP1. The promoter sequence composition of the secretory embryonic alkaline phosphatase (SEAP) reporter gene consists of an IFN-β primary promoter and five copies of the upstream NF-κB co-expression transcriptional response element and three copies of the c-Rel binding site. The secretory luciferase (Lucia) reporter gene is driven by five interferon (IFN)-stimulated response elements and a basic promoter of ISG54. This made it possible to study simultaneously the two major downstream signaling pathways of STING: the NF κB pathway by detecting SEAP activity: and the IRF pathway by evaluating the activity of Lucia luciferase.
The compounds were diluted with PB buffer (50 mM HEPES, 100 mM KCl, 3 mM MgCl2, 0.1 mM DTT, 85 mM Sucrose, 1 mM ATP, 0.1 mM GTP, 0.20% BSA). 20 μL of the reference or tested compound was added to each well in a 96-well plate, followed by 180 μL of THP1-Dual cells (approximately 100,000 cells/well) suspended in PB buffer. The plate was incubated for 30 minutes at 37° C. under […], and centrifuged at 1000 rpm for 10 minutes. The supernatant was discarded. […] The supernatants were collected and QUANTI-Luc™ was used to quantify the activation of the IRF3 pathway according to the manufacturer's instructions.

[2] = test system: IRF3 pathway in RAW-Dual cells (RAW264.7); assay: Raw-Dual reporter gene activity assay (luciferase, QUANTI-Luc); assay type: cell-based, mouse
Method: The RAW-Dual™ cells used in the test (InvivoGen catalog code: rawd-ismip) were constructed by stably integrating two inducible reporter genes in mouse macrophage cell line RAW264.7. The NF-KB pathway was studied by detecting SEAP activity and the IRF3 pathway was studied by evaluating the activity of luciferase. […] On the second day, the culture medium was discarded, and 200 μL of compound solution prepared in advance with the culture medium was added into each well followed by incubation at room temperature for 30 minutes. After the treatment medium was sucked out, it was washed twice with serum-free culture medium, and 200 μL of culture medium was added into each well, followed by incubation in an incubator at 37° C. for 18-24 hours. On the third day, 20 μL of supernatant was collected per well and QUANTI-Luc™ was used to quantify the activation of IRF3 pathway according to the manufacturer's instructions.

[3] = THP1-Dual cells, IRF3 pathway (Lucia), 30 min treatment, 18 hours incubation, read-out: EC50
[4] = Mus musculus, RAW264.7, read-out: Raw, EC50

Work on `BP1(=O)OC[C@H]2O[C@@H](n3cc(F)c4c(=O)[nH]cnc43)[C@@H](F)C2OP(B)(=O)OC[C@H]2O[C@@H](n3cnc4c(N)ncnc43)[C@@H](F)C2O1` (single isomer, unassigned) [Compound 6B] yielded an EC50 [1] of 9.31 µM and an EC50 ([2]; read-out: Raw, EC50) of 5.4 µM.

`BP1(=O)OC[C@H]2O[C@@H](n3cnc4c(N)ncnc43)C(O)[C@H]2OP(=O)(S)OC[C@H]2O[C@@H](n3cnc4c(N)ncnc43)[C@@H](F)C2O1` (stereo partly drawn) [Compound 1A] gave an EC50 ([1]; Homo sapiens, THP1-Dual) of 74.7 µM.

`BP1(=O)OC[C@H]2O[C@@H](n3cc(F)c4c(=O)[nH]cnc43)[C@@H](F)C2OP(B)(=O)OC[C@H]2O[C@@H](n3cnc4c(N)ncnc43)[C@@H](F)C2O1` (single isomer, unassigned) [Compound 6A] was tested, and the EC50 [1] was 1.36 µM.

Work on `BP1(=O)OC[C@H]2O[C@@H](n3cc(F)c4c(=O)[nH]cnc43)[C@@H](F)C2OP(B)(=O)OC[C@H]2O[C@@H](n3cnc4c(N)ncnc43)[C@@H](F)C2O1` (single isomer, unassigned) [Compound 6C] yielded an EC50 [1] of 2.31 µM and an EC50 ([2]; read-out: Raw, EC50) of 1.1 µM.

With `BP1(=O)OC[C@H]2O[C@@H](n3cnc4c(N)ncnc43)[C@@H](F)C2OP(B)(=O)OC[C@H]2O[C@@H](n3cc(F)c4c(=O)[nH]cnc43)[C@@H](O)C2O1` (single isomer, unassigned) [Compound 3D] the EC50 [1] was 26.1 µM and the EC50 ([2]; read-out: Raw, EC50) was 10 µM.

`BP1(=O)OC[C@H]2O[C@@H](n3cc(F)c4c(=O)[nH]cnc43)[C@@H](F)C2OP(B)(=O)OC[C@H]2O[C@@H](n3cnc4c(N)ncnc43)[C@@H](F)C2O1` (single isomer, unassigned) [Compound 6D] was tested, and the EC50 [1] was 12.3 µM and the EC50 ([2]; read-out: Raw, EC50) was 9.5 µM.

`BP1(=O)OC[C@H]2O[C@@H](n3cnc4c(N)ncnc43)C(O)[C@H]2OP(=O)(S)OC[C@H]2O[C@@H](n3cnc4c(N)ncnc43)C(F)[C@H]2O1` (single isomer, unassigned) [Compound 1D] gave an EC50 [1] of 7.48 µM and an EC50 ([2]; read-out: Raw, EC50) of 24.4 µM.

In the case of `BP1(=O)OC[C@@]23COC([C@H](n4cnc5c(N)ncnc54)O2)[C@H]3OP(B)(=O)OC[C@H]2O[C@@H](n3cnc4c(N)ncnc43)[C@@H](F)C2O1` (single isomer, unassigned) [Compound 5C], the EC50 ([2]; read-out: Raw, EC50) is reported as 28.2 µM.

`Nc1nc2c(ncn2[C@@H]2O[C@@H]3COP(=O)(O)O[C@H]4[C@@H](O)[C@H](n5cnc6c(N)ncnc65)O[C@@H]4COP(=O)(O)O[C@@H]2[C@@H]3O)c(=O)[nH]1` [2′,3′-cGAMP, (2′ 3′) cyclic guanosine monophosphate-adenosine monophosphate, reference compound] gave an EC50 [1, 3] of 20.2 µM.

`BP1(=O)OC[C@H]2O[C@@H](n3cnc4c(N)ncnc43)C(F)[C@H]2OP(B)(=O)OC[C@H]2O[C@@H](n3cnc4c(N)ncnc43)[C@@H](F)C2O1` (stereo partly drawn) [Compound 2A] was tested, and the EC50 ([1]; Homo sapiens, THP1-Dual) was 1.75 µM and the EC50 [2, 4] was 23.4 µM.

`BP1(=O)OC[C@H]2O[C@@H](n3cnc4c(N)ncnc43)[C@@H](F)C2OP(B)(=O)OC[C@H]2O[C@@H](n3cc(F)c4c(=O)[nH]cnc43)[C@@H](O)C2O1` (single isomer, unassigned) [Compound 3C] was tested, and the EC50 [1] was 47.2 µM and the EC50 [2, 4] was 9.4 µM.

`Nc1ncnc2c1ncn2[C@@H]1O[C@@H]2COP(=O)(S)O[C@@H]3[C@H](O)[C@@H](COP(O)(=S)O[C@H]2[C@H]1O)O[C@H]3n1cnc2c(N)ncnc21` (stereo partly drawn) [ADU-S100, reference compound] was tested, and the EC50 [1, 3] was 23.4 µM and the EC50 ([2]; RAW-Dual cells, IRF3 pathway, 30 min treatment, 18-24 hours incubation, read-out: Raw, EC50) was 47.1 µM.

With `BP1(=O)OC[C@H]2O[C@@H](n3cnc4c(N)ncnc43)[C@@H](F)C2OP(B)(=O)OC[C@H]2O[C@@H](n3cc(F)c4c(=O)[nH]cnc43)[C@@H](O)C2O1` (single isomer, unassigned) [Compound 3B] the EC50 ([1]; Homo sapiens, THP1-Dual) was 42.2 µM.

With `BP1(=O)OC[C@@]23COC([C@H](n4cnc5c(N)ncnc54)O2)[C@H]3OP(B)(=O)OC[C@H]2O[C@@H](n3cnc4c(N)ncnc43)[C@@H](F)C2O1` (single isomer, unassigned) [Compound 5B] the EC50 ([1]; Homo sapiens, THP1-Dual) was 11.4 µM and the EC50 [2, 4] was 54.8 µM.

`BP1(=O)OC[C@H]2O[C@@H](n3cnc4c(N)ncnc43)C(O)[C@H]2OP(=O)(S)OC[C@H]2O[C@@H](n3cnc4c(N)ncnc43)C(F)[C@H]2O1` (single isomer, unassigned) [Compound 1C] gave an EC50 [1] of 16.8 µM and an EC50 [2, 4] of 41.4 µM.

`BP1(=O)OC[C@@]23COC([C@H](n4cnc5c(N)ncnc54)O2)[C@H]3OP(B)(=O)OC[C@H]2O[C@@H](n3cnc4c(N)ncnc43)[C@@H](F)C2O1` (single isomer, unassigned) [Compound 5A] gave an EC50 [1] of 6.2 µM.

In the case of `BP1(=O)OC[C@H]2O[C@@H](n3cnc4c(N)ncnc43)C(O)[C@H]2OP(=O)(S)OC[C@H]2O[C@@H](n3cnc4c(N)ncnc43)C(F)[C@H]2O1` (stereo partly drawn) [Compound 1B], the EC50 ([1]; Homo sapiens, THP1-Dual) is reported as 7.38 µM and the EC50 [2, 4] is reported as 15.8 µM.

Work on `BP1(=O)OC[C@@]23COC([C@H](n4cnc5c(N)ncnc54)O2)[C@H]3OP(B)(=O)OC[C@H]2O[C@@H](n3cnc4c(N)ncnc43)[C@@H](F)C2O1` (single isomer, unassigned) [Compound 5D] yielded an EC50 [1] of 12.6 µM and an EC50 [2, 4] of 31.6 µM.

— US11401295B2, “Cyclic dinucleotide compound and uses thereof” (SHANGHAI JEMINCARE PHARMACEUTICALS CO., LTD., priority 2018, dated 2022)
